According to US20250051729A1, “METHOD FOR PREPARING HIGHLY DIFFERENTIATED KIDNEY ORGANOIDS” (RGENORGANO BIOTECHNOLOGY CO., LTD., priority 2021, published 2025):
Entries after “also recorded” stand apart in the source; their conditions may differ.

How the values were obtained:
[1] = test system: human iPSC-derived kidney organoids; test: Confocal imaging of PECAM1+ vasculature around NPHS1+ or WT1+ glomerular structure in kidney organoids; type: cell-based; settings: Protocol B: VEGF (days 6, 9, 12, 14) and 10 μM Compound 1 (day 12) added together to Protocol A; FIG. 2A
Protocol: While Protocol B was largely similar to Protocol A, to enhance a vascular network, VEGF (10 ng/ml, 20 ng/ml, 30 ng/ml, and 50 ng/ml each) was treated on days 6, 9, 12, and 14, and to enhance podocyte differentiation, 10 μM Compound 1 was treated on day 12. For immunofluorescent analysis, organoids were fixed on day 18 unless otherwise noted. Specifically, for fixation, equal volumes of PBS (Thermo Fisher Scientific) and 8% paraformaldehyde (Electron Microscopy Sciences) were added to a medium for 15 minutes, and then the sample was washed with PBS three times. Subsequently, the fixed organoid culture was blocked with 5% donkey serum (Millipore)+0.3% Triton-X-100/PBS. Afterward, the blocked organoid culture was incubated in PBS containing 3% bovine serum albumin (Sigma)+ primary antibodies [anti-acetylated tubulin (Sigma-Aldrich T7451, 1:200), anti-collagen IV (Southern Biotech 1340-01, 1:300), anti-cytokeratin 8 (Abcam ab9023, 1:200), anti-GATA3 (R&D AF2605, 1:200), anti-Gb3 (TCI […], 1:200), anti-GLA (Thermo Fisher Scientific PA5-27349, 1:1000), anti-laminin (Sigma-Aldrich L9393. 1:200), anti-LTL (Vector Labs FL-1321, 1:200 dilution), […]32 (BD Pharmingen 555849, 1:200), anti-NPHS1 ([…] (Abcam ab9498, 1:200), anti-TUBA4A (Abcam ab24610, 1:200), and anti-WT1 (Abcam ab89901, 1:200)] overnight, washed, and then incubated with Alexa Fluor secondary antibodies (Invitrogen). […]

[2] = test system: GLA mutant kidney organoids; test: Immunofluorescent staining of Gb3 (Gb3 positive area) in GLA mutant kidney organoids; type: cell-based, human; settings: GLA mutant kidney organoids (Protocol B) after treatment with agalsidase-α (ERT); FIGS. 4D and 4E
Protocol: For immunofluorescent analysis, organoids were fixed on day 18 unless otherwise noted. Specifically, for fixation, equal volumes of PBS (Thermo Fisher Scientific) and 8% paraformaldehyde (Electron Microscopy Sciences) were added to a medium for 15 minutes, and then the sample was washed with PBS three times. Subsequently, the fixed organoid culture was blocked with 5% donkey serum (Millipore)+0.3% Triton-X-100/PBS. Afterward, the blocked organoid culture was incubated in PBS containing 3% bovine serum albumin (Sigma)+ primary antibodies [anti-acetylated tubulin (Sigma-Aldrich T7451, 1:200), anti-collagen IV (Southern Biotech 1340-01, 1:300), anti-cytokeratin 8 (Abcam ab9023, 1:200), anti-GATA3 (R&D AF2605, 1:200), anti-Gb3 (TCI A2506, 1:200), anti-GLA (Thermo Fisher Scientific PA5-27349, 1:1000), anti-laminin (Sigma-Aldrich L9393. 1:200), anti-LTL (Vector Labs FL-1321, 1:200 dilution), antiMECA32 (BD Pharmingen 555849, 1:200), anti-NPHS1 (R&D AF4269, 1:200), anti-Pecaml (Abcam ab9498, 1:200), anti-TUBA4A (Abcam ab24610, 1:200), and anti-WT1 (Abcam ab89901, 1:200)] overnight, washed, and then incubated with Alexa Fluor secondary antibodies (Invitrogen). Afterward, the resulting organoids were washed and stained with DAPI, or mounted using Vectashield H-1000. Images were obtained using a Zeiss LSM 700 confocal microscope (Carl Zeiss, Germany) and ZEN 3.1 software. […]

[3] = test system: GLA mutant kidney organoids; test: Immunofluorescent staining of NPHS1, PECAM1 and LTL: vasculopathy phenotype in GLA mutant kidney organoids; type: cell-based, human; settings: GLA mutant kidney organoids produced by Protocol B, ERT; FIG. 4F
Protocol: For immunofluorescent analysis, organoids were fixed on day 18 unless otherwise noted. Specifically, for fixation, equal volumes of PBS (Thermo Fisher Scientific) and 8% paraformaldehyde (Electron Microscopy Sciences) were added to a medium for 15 minutes, and then the sample was washed with PBS three times. Subsequently, the fixed organoid culture was blocked with 5% donkey serum (Millipore)+0.3% Triton-X-100/PBS. […]
Next, the phenotype of the vasculopathy in Fabry disease was determined using GLA mutant kidney organoids produced by Protocol B. Immunofluorescent staining analyses of NPHS1, PECAM1, and LTL were conducted on the wild type, GLA mutant kidney organoids, and human recombinant agalsidase-α-treated GLA mutant kidney organoids.

Row | Molecule | vascularization surrounding the glomerular structure [1] | Gb3 accumulation [2] | vascular network (glomerular angiogenesis and formation of large lumen vessels) [3]
1 | VEGF | significantly improved |  | 
2 | NC(=O)c1ccc(-c2nc(-c3ccc4c(c3)OCO4)c(-c3ccccn3)[nH]2)cc1 [Compound 1, 4-[4-(1,3-benzodioxol-5-yl)-5-pyridin-2-yl-1H-imidazol-2-yl]benzamide, reference compound] | significantly improved |  | 
3 | agalsidase-α: recombinant human agalsidase-α used as recombinant enzyme replacement therapy (ERT) (protein, UniProt P06280 32-429, looked up) Alpha-galactosidase A: LDNGLARTPTMGWLHWERFMCNLDCQEEPDSCISEKLFMEMAELMVSEGWKDAGYEYLCIDDCWMAPQRDSEGRLQADPQRFPHGIRQLANYVHSKGLKLGIYADVGNKTCAGFPGSFGYYDIDAQTFADWGVDLLKFDGCYCDSLENLADGYKHMSLALNRTGRSIVYSCEWPLYMWPFQKPNYTEIRQYCNHWRNFADIDDSWKSIKSILDWTSFNQERIVDVAGPGGWNDPDMLVIGNFGLSWNQQVTQMALWAIMAAPLFMSNDLRHISPQAKALLQDKDVIAINQDPLGKQGYQLRQGDNFEVWERPLSGLAWAVAMINRQEIGGPRSYTIAVASLGKGVACNPACFITQLLPVKRKLGFYEWTSRLRSHINPTGTVLLQLENTMQMSLKDLL |  | decreased | restored the vascular network; also recorded: restored a vascular network
